Data as given in a compilation of properties of binary mixtures (doi:10.1016/j.molliq.2020.112718).

Experiment: xn = mol fraction of the nth substance listed
Settings: 100 kPa

COCC[n+]1ccn(C)c1.C[C@@H](O)[C@H](N)C(=O)[O-] + O
viscosity [mPa·s]
Settings | 298.15 K | 303.15 K | 308.15 K | 313.15 K | 318.15 K | 323.15 K | 328.15 K
x1 = 0.3313 | 740 | 473 | – | 199.2 | 139.9 | 101.7 | 82.2
x1 = 0.3795 | 767 | 500 | 306 | 210 | 148.1 | 108.5 | 84.9
x1 = 0.4475 | 800 | 529 | 320 | 222 | 155.8 | – | 88.2
x1 = 0.5347 | 829 | – | 332 | 233 | – | – | 91.3
x1 = 0.657 | 852 | – | 344 | 242 | 171.8 | – | 94.8
x1 = 1 | 900 | 625 | 362 | 260 | 184.4 | 136.8 | 99.6

CCOCC[n+]1ccn(C)c1.C[C@@H](O)[C@H](N)C(=O)[O-] + O
viscosity [mPa·s]
Settings | 298.15 K | 303.15 K | 308.15 K | 313.15 K | 318.15 K | 323.15 K | 328.15 K
x1 = 0.3157 | 834 | 538 | 344 | 231 | 167 | – | 97.8
x1 = 0.3647 | 889 | 571 | 360 | – | 174.5 | – | –
x1 = 0.4246 | 938 | 604 | 376 | 259 | 180.6 | 130.8 | 102.6
x1 = 0.508 | 990 | 638 | 393 | 273 | 187.2 | 136.2 | –
x1 = 0.6189 | – | 671 | 410 | 287 | 195 | 143.5 | 109.6
x1 = 1 | 1133 | 730 | 439 | 313 | 207 | 153.8 | –
